Data set [1] concerns TYRO3. The data set can be described thus: TYRO3 mRNA levels in MGH-U3 xenografts by Q-RT-PCR. Particulars: 3 days after the last siRNA injection, Student's t-test p<0,001. Type of data set: in vivo, athymic nude mice. From the text:
FIG. 13 is a graph showing TYRO3 mRNA levels for MGH-U3 xenografts, 3 days after the last siRNA injection, divided by TBP (TATA binding protein) mRNA levels+/−SD in treated and control tumors, as assessed by Q-RT-PCR.

The subject of data set [2] is MGH-U3, KK47, RT112 and J82 colonies. The data set can be described thus: Anchorage-independent colony formation in soft agar. Format: cell-based, human. Particulars: 50 nM siRNA, two weeks. The procedure:
2.10^4 50 nM siRNA-transfected cells in DMEM supplemented with 10% FCS and 0.3% agar, were added to triplicate wells containing medium and 0.8% agar on 12-well plates. The plates were incubated for two weeks and colonies with diameters greater than 50 μm were scored as positive, using a phase-contrast microscope equipped with a measuring grid. Results are the means+/−SD of two independent experiments carried out in triplicate.

A further data set concerns MGH-U3 xenografts. Nature of the data set: Growth of MGH-U3 xenografts, siRNA treatment. Type of data set: in vivo, athymic nude mice. The procedure: Tumor-bearing mice were treated three times a week by intraperitoneal injection of 4 μg siRNA (control or TYRO3) (6 mice and 12 tumors per group) (The first injection corresponds to day 0). Tumor volume variations are represented on the graph of FIG. 12A. (Wilcoxon rank sum test: *, 0.05<p<0.01, **, 0.01<p<0.001, ***, p<0.001) Inset are pictures of representative tumors observed at the end of the treatment. The upper line tumors are those of TYRO3 siRNA treated mice. The middle line tumors are those of control siRNA treated mice. The lower line tumors are those of PBS treated mice. Tumors were weighted at the end of the experiment (FIG. 12B).
The role of this gene in bladder cancer cell growth in vivo was studied. J82 and MGH-U3 cells were implanted subcutaneously in athymic nude mice. Once tumors were established, mice were randomly selected for treatment with control or TYRO3-specific siRNAs. For J82 xenografts, two weeks after the beginning of treatment only three tumors out of 12 were still observed (FIGS. 11A and 11B). For MGH-U3 xenografts, after 21 days of treatment, tumor volume was 70% lower in mice treated with TYRO3 siRNA than in mice treated with control siRNA (Wilcoxon rank-sum test, p<0.001) (FIGS. 12A and 12B).

Data set [3] has as its system bladder cancer cells. Nature of the data set: TUNEL assay on transfected bladder cancer cells. Type of data set: cell-based, human. The settings on record: 50 nM siRNA; 72 hours after transfection. The procedure:
3×10^4 cells per well were seeded on a glass slide in a 24-well plate and transfected with 50 nM siRNA. DNA fragmentation was evaluated 72 hours after transfection, using a TUNEL (deoxynucleotidyl transferase (Tdt)-mediated nick-end labeling) assay detection Kit (Roche Diagnostic, Meylan, France) according to the manufacturer's instructions. The inventors analyzed 600 cells under a light microscope, determining the proportion of labeled cells.

A further data set has as its system MCF7 cells. Nature of the data set: Cell viability after siRNA transfection, control cell line with very low TYRO3 expression. Type of data set: cell-based, human. The procedure: (§1) After transfection as described in the legend of FIG. 4, cells were treated with trypsin 72 hours after transfection, stained with trypan blue and viable cells were counted in triplicate, using a Malassez hematocytometer. Results are the means+/−SD of two independent experiments carried out in triplicate.
(§2) In order to investigate the role of TYRO3 in cell growth and tumorigenic properties, TYRO3 expression was blocked using RNA interference technology or TYRO3 activity was inhibited using a blocking antibody directed against the extracellular domain of TYRO3 or a soluble receptor consisting of the recombinant extracellular domain of TYRO3 produced in bacteria. Two cell lines expressing TYRO3 (MGH-U3, KK47), two cell lines expressing both TYRO3 and GAS6 (J82, RT112) and one control breast cancer derived cell line presenting a very low TYRO3 expression level (MCF-7) were used. It was shown by western blot using an anti-phosphotyrosine antibody after TYRO3 immunoprecipitation that in each type of cell line (expressing or not GAS6), TYRO was activated (data not shown).

Data set [4] deals with MGH-U3, KK47, J82 and RT112 cells. The data set can be described thus: Cell viability after siRNA transfection (trypan blue count). Particulars: 50 nM siRNA, 72 hours after transfection. Type of data set: cell-based, human. The procedure: as §1, §2
In data set [5] the test system is TYRO3. Nature of the data set: Efficiency of TYRO3 silencing after siRNA transfection (mRNA and western-blot). Format: cell-based, human. Particulars: MGH-U3, KK47, J82 and RT112 cells; 50 nM siRNA; 72 hours after transfection. The procedure:
Cells were transfected with 50 nM siRNA (siRNA anti-TYRO3 (SEQ ID No. 1) or control siRNA (scramble, SEQ ID No. 2)) and the efficiency of TYRO3 silencing was assessed 72 hours after transfection by western-blot.

Data set [6] concerns bladder cancer cells. Nature of the data set: Cell cycle analysis by flow-cytometry 72 h post siRNA transfection. Format: cell-based, human. The procedure: Results were analyzed using Fisher test, *** p<0.001, * 0.01<p<0.05
[7] abbreviates: siRNA treated xenografts, data not shown.

As for “TYRO3 siRNA: siRNA anti-TYRO3 comprising the sequence of SEQ ID No. 1 (GGUGUGCCAUUUUUCACAGTT; chemistry not given here)”, the “TYRO3 mRNA levels in tumors” value in the data set on TYRO3 [1] is recorded as “significant decrease”. The “viable colonies in soft agar assays” value in data set [2] was “fewer viable”. For the same substance, in the data set on MGH-U3 xenografts (MGH-U3 xenografts, after 21 days of treatment, 4 μg siRNA intraperitoneal three times a week, p<0.001), the “tumor volume lower than in mice treated with control siRNA” value stood at 70%. For the same substance, in the data set on MGH-U3 xenografts (setting [7]), the “apoptosis in treated tumors (TUNNEL analysis)” value is given as “increase apoptosis”; the “histological difference between treated and control tumors” value was “No histological difference”. For the same substance, the “apoptotic rate (TUNEL)” value with bladder cancer cells [3] is listed as “increased apoptotic rate”. In the data set with MCF7 cells, the “effect on viable cells” value is on record as “no effect”. Moreover, in data set [4], the “viable cells versus control siRNA” value is listed as “fewer viable”. In the data set on TYRO3 [5], the “inhibition of TYRO3 mRNA and protein levels” value was 80-90%. Besides, the “change in cell-cycle progression” value in the data set with bladder cancer cells [6] is “significant but low change”.

The values are drawn from US9233144B2, “Tyrosine kinase receptor TYRO3 as a therapeutic target in the treatment of cancer” (INSTITUT CURIE, priority 2008, dated 2016).
